The subject of data set [1] is Mus musculus. Nature of the data set: Antiinflammatory activity in LPS induced mouse model assessed as reduction in tumor necrosis factor alpha level in plasma at 1 mg/kg, po preincubated for 1 hr followed by LPS stimulation and measured after 2 hrs by ELISA method relative to control. The data set is classed as functional. As to conditions: time 3 hrs. Further details: scale not given: the % may be the effect or the level left. (ELISA stands for enzyme-linked immunosorbent assay.)

Data set [2] has as its system Mus musculus. Nature of the data set: Antiinflammatory activity in LPS induced mouse model assessed as reduction in IL-6 level in plasma at 1 mg/kg, po preincubated for 1 hr followed by LPS stimulation and measured after 2 hrs by ELISA method relative to control. The data set is classed as functional. Details: scale not given: the % may be the effect or the level left. The following applies: time 3 hrs.

The nature of data set [3]: Half life in mouse plasma.
Data set [4] is described as follows: in vivo. The following applies: rat, plasma.

The values below come from ChEMBL document CHEMBL5096164, “In Vivo Profiling of a Natural Alkaloid, Anatabine, in Rodents: Pharmacokinetics and Anti-Inflammatory Efficacy” (J Nat Prod, 2021).

Regarding `C[C@@H]1C[C@H]2[C@@H]3CCC4=CC(=O)C=C[C@]4(C)[C@@]3(F)[C@@H](O)C[C@]2(C)[C@@]1(O)C(=O)CO` [DEXAMETHASONE], the Activity in data set [1] is recorded as 72.1%; in data set [2] it was 46.9%.
A word on the half-life: it is the time needed for the level to fall by half in the phase considered. Regarding `CN1CCC[C@H]1c1cccnc1` [NICOTINE], the figures for the half-life in data set [3] and in data set [4] were 6 min and 54 min, respectively.
